The values below come from patent US11649238B2, “Substituted pyrazolo[1,5-a]pyrimidines as PI4K inhibitors” (GLAXOSMITHKLINE INTELLECTUAL PROPERTY DEVELOPMENT LIMITED, priority 2018, dated 2023).

Bounds are passed on as bounds.

T1 sequence (Q9UBF8 1-801 isoform Q9UBF8-2): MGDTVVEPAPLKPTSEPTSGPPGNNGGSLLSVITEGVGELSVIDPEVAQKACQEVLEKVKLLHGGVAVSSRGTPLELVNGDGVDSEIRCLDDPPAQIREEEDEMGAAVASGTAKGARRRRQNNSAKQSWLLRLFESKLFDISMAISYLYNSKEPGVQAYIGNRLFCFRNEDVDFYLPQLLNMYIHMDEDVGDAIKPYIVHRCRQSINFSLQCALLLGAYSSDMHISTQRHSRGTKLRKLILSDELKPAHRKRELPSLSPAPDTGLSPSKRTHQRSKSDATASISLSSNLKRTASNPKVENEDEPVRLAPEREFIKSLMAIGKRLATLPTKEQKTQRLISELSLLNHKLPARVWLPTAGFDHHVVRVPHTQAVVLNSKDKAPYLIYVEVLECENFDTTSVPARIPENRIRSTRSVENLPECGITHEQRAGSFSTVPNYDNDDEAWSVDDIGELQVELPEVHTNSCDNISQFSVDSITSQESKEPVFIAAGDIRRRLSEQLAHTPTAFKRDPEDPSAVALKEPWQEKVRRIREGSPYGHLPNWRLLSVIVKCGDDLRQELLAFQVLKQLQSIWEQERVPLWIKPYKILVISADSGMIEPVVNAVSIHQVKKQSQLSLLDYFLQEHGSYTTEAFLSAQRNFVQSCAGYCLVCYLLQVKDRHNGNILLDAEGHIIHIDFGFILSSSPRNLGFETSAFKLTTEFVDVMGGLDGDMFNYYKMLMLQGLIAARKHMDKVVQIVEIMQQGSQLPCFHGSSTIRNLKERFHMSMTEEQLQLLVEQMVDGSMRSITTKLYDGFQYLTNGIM

This test has as its target T1, human PI4KIII-beta 13-828 (D316-330) (Homo sapiens, UniProt Q9UBF8).
T1 construct: human PI4KIII-beta 13-828 (D316-330)
As to the kind of experiment: PI4 KB Activity Assay (ADP-GLO Kinase assay). Type of test: biochemical. The following applies: 1 mM ATP, 60 μM phosphatidylinositol, 3 hours at room temperature; read-out: mean pIC50 (converted). The procedure: The in vitro inhibition of human PI4KIII-beta 13-828 (D316-330) activity was determined by using the ADP-GLO Kinase assay kit from Promega. Inhibitors were dissolved in 100% DMSO at a concentration of 1 mM. Dilutions were prepared in 100% DMSO using a 1 in 3 serial step dilution. A 60 nL stamp from an 11-point titration was transferred to a white low volume 384 well Greiner assay plate ensuring a final DMSO concentration of 1% across the plate and a top final concentration of inhibitor of 10 μM. The PI4KIII-beta assay contained 25 mM Hepes pH 7.5 (NaOH), 10 mM MgCl2, 0.5 mM EGTA, 0.1% Triton X-100, 2 mM TCEP, and 0.1 mg/ml BSA, 1 mM ATP, 60 μM phosphatidylinositol, and 1.5 nM human PI4K-beta 13-828 (D316-330) in a total volume of 6 μL. The assay was initiated with the addition of enzyme, covered, and incubated at room temperature for 3 hours. The assays were stopped with the addition of 6 μl ADP-GLO Reagent containing 0.1% CHAPS to deplete the unconsumed ATP. The plates were incubated at room temperature for 60 min and then 12 μl of the Kinase Detection Reagent containing 0.1% CHAPS was added to convert ADP to ATP and introduce luciferase and luciferin. After 40 min incubation at room temperature the luminescent signal was read on a BMG Labtech PHERAstar FS with the following settings; Gain 3600, Focal height 13.7 mm, measurement interval time 1 s, Settling time 0.2 s. The inhibitory effect of the PI4K-beta activity of the compounds was evaluated by the IC50 of the response relative to the high, no compound, and low, no enzyme, controls by fitting to the four parameter dose response question.
A general note: ADP-Glo turns the ADP formed in a reaction into a luminescent signal.
Regarding `COc1ccc(-c2c(C)nn3c(NCc4cccc(-c5nccn5C)c4)cc(C(C)O)nc23)cc1S(C)(=O)=O` (centres unmarked) [Compound 1, 1-(3-(4-Methoxy-3-(methylsulfonyl)phenyl)-2-methyl-7-((3-(1-methyl-1H-imidazol-2-yl)benzyl)amino)pyrazolo[1,5-a]pyrimidin-5-yl)ethanol], the IC50 is at most 3.98 nM.

Regarding `COc1ccc(-c2c(C)nn3c(NCc4cccc(-n5cccn5)c4)cc(C(C)(C)O)nc23)cc1C(=O)N1CC[C@H](O)C1` [Compound 52], the IC50 was at most 3.98 nM.

As to `COc1ccc(-c2c(C)nn3c(NCc4cccc(-n5cccn5)c4)cc(C(C)(C)O)nc23)cc1C(=O)N1CCC(C)(O)C1` (centres unmarked) [Compound 51], the IC50 is at most 3.98 nM.

As to `Cc1ccc(-c2c(C)nn3c(NCc4cccc(-c5nccn5C)c4)cc(C(C)(C)O)nc23)cc1C(=O)N(C)CCO` [Compound 43, N-(2-hydroxyethyl)-5-(5-(2-hydroxypropan-2-yl)-2-methyl-7-((3-(1-methyl-1H-imidazol-2-yl)benzyl)amino)pyrazolo[1,5-a]pyrimidin-3-yl)-N,2-dimethylbenzamide], the IC50 was at most 3.98 nM.

As for `Cc1ccc(-c2c(C)nn3c(NCc4cccc(-n5cccn5)c4)cc(C(C)(C)O)nc23)cc1C(=O)N(C)CCCO` [Compound 34], the IC50 is at most 3.98 nM.

Consider `COc1ccc(-c2c(C)nn3c(NCc4cccc(-c5nccn5C)c4)cc(C4CCOCC4)nc23)cc1S(=O)(=O)CCO` [Compound 64, 2-((2-Methoxy-5-(2-methyl-7-((3-(1-methyl-1H-imidazol-2-yl)benzyl)amino)-5-(tetrahydro-2H-pyran-4-yl)pyrazolo[1,5-a]pyrimidin-3-yl)phenyl)sulfonyl)ethan-1-ol], for which the IC50 is at most 3.98 nM.

Consider `Cc1nn2c(NCc3cccc(-c4nccn4C)c3)cc(C(C)O)nc2c1-c1ccc(Cl)c(C(=O)N2CC[C@H](O)C2)c1` (some centres unmarked) [Compound 14], for which the IC50 was at most 3.98 nM.

In the case of `CCC(O)c1cc(NCc2cccc(-c3nccn3C)c2)n2nc(C)c(-c3ccc(C)c(C(=O)N(C)CCCO)c3)c2n1` (single isomer, unassigned) [Compound 69, N-(3-Hydroxypropyl)-5-(5-(1-hydroxypropyl)-2-methyl-7-((3-(1-methyl-1H-imidazol-2-yl)benzyl)amino)pyrazolo[1,5-a]pyrimidin-3-yl)-N,2-dimethylbenzamide], the IC50 was at most 3.98 nM.

On to `Cc1ccc(-c2c(C)nn3c(NCc4cccc(-n5cccn5)c4)cc(C(C)(C)O)nc23)cc1C(=O)N1CCC[C@@H]1CO` [Compound 35], for which the IC50 is at most 3.98 nM.

Turning to `Cc1ccc(-c2c(C)nn3c(NCc4cccc(-c5nccn5C)c4)cc(C(C)(C)O)nc23)cc1C(=O)N(C)CC(C)O` (single isomer, unassigned) [Compound 62, 5-(5-(2-Hydroxypropan-2-yl)-2-methyl-7-((3-(1-methyl-1H-imidazol-2-yl)benzyl)amino)pyrazolo[1,5-a]pyrimidin-3-yl)-N-(2-hydroxypropyl)-N,2-dimethylbenzamide], the IC50 is at most 3.98 nM.

Take `Cc1ccc(-c2c(C)nn3c(NCc4cccc(-c5nccn5C)c4)cc(C(C)(C)O)nc23)cc1C(=O)N(C)[C@H](C)CO` [Compound 39]: the IC50 is at most 3.98 nM.

For the compound `CCC(O)(CC)c1cc(NCc2cccc(-c3nccn3C)c2)n2nc(C)c(-c3ccc(C)c(C(=O)N(C)CCCO)c3)c2n1` [Compound 68, 5-(5-(3-Hydroxypentan-3-yl)-2-methyl-7-((3-(1-methyl-1H-imidazol-2-yl)benzyl)amino)pyrazolo[1,5-a]pyrimidin3-yl)-N-(3-hydroxypropyl)-N,2-dimethylbenzamide], the IC50 is at most 3.98 nM.

`Cc1ccc(-c2c(C)nn3c(NCc4cccc(-c5nccn5C)c4)cc(C(C)(C)O)nc23)cc1C(=O)N1CCC(C)(O)C1` (centres unmarked) [Compound 31]: the IC50 was at most 3.98 nM.

For `CCC(O)c1cc(NCc2cccc(-c3nccn3C)c2)n2nc(C)c(-c3ccc(C)c(C(=O)N(C)[C@@H](C)CO)c3)c2n1` (single isomer, unassigned) [Compound 80], the IC50 is at most 3.98 nM.

In the case of `Cc1ccc(-c2c(C)nn3c(NCc4cccc(-c5nccn5C)c4)cc(C(C)(C)O)nc23)cc1C(=O)N(C)CC(C)O` (centres unmarked) [Compound 61], the IC50 was at most 3.98 nM.

In the case of `CCC(CO)c1cc(NCc2cccc(-c3nccn3C)c2)n2nc(C)c(-c3ccc(C)c(C(=O)N(C)CCCO)c3)c2n1` (single isomer, unassigned) [Compound 66, 5-(5-(1-Hydroxybutan-2-yl)-2-methyl-7-((3-(1-methyl-1H-imidazol-2-yl)benzyl)amino)pyrazolo[1,5-a]pyrimidin-3-yl)-N-(3-hydroxypropyl)-N,2-dimethylbenzamide], the IC50 is at most 3.98 nM.

For `Cc1nn2c(NCc3cccc(-c4nccn4C)c3)cc(C(C)(C)O)nc2c1-c1ccc(Cl)c(C(=O)N(C)CCCO)c1` [Compound 7, 2-Chloro-5-(5-(2-hydroxypropan-2-yl)-2-methyl-7-((3-(1-methyl-1H-imidazol-2-yl)benzyl)amino)pyrazolo[1,5-a]pyrimidin-3-yl)-N-(3-hydroxypropyl)-N-methylbenzamide], the IC50 was at most 3.98 nM.

Consider `COc1ccc(-c2c(C)nn3c(NCc4cccc(-c5nccn5C)c4)cc(C(C)(C)O)nc23)cc1C(=O)N1CCCC1CO` (centres unmarked) [Compound 44], for which the IC50 was at most 3.98 nM.

`Cc1nn2c(NCc3cccc(-c4nccn4C)c3)cc(C(C)O)nc2c1-c1ccc(Cl)c(C(=O)N(C)CCCO)c1` (single isomer, unassigned) [Compound 57, 2-Chloro-5-(5-(1-hydroxyethyl)-2-methyl-7-((3-(1-methyl-1H-imidazol-2-yl)benzyl)amino)pyrazolo[1,5-a]pyrimidin-3-yl)-N-(3-hydroxypropyl)-N-methylbenzamide]: the IC50 is at most 3.98 nM.

For `COc1ccc(-c2c(C)nn3c(NCc4cccc(-n5cccn5)c4)cc(C(C)(C)O)nc23)cc1C(=O)N1CCC[C@@H]1CO` [Compound 49], the IC50 is at most 3.98 nM.

With `CCC(CO)c1cc(NCc2cccc(-c3nccn3C)c2)n2nc(C)c(-c3ccc(OC)c(S(=O)(=O)CCO)c3)c2n1` (centres unmarked) [Compound 86, 2-(3-(3-((2-Hydroxyethyl)sulfonyl)-4-methoxyphenyl)-2-methyl-7-((3-(1-methyl-1H-imidazol-2-yl)benzyl)amino)pyrazolo[1,5-a]pyrimidin-5-yl)butan-1-ol], the IC50 is at most 3.98 nM.

As to `COc1ccc(-c2c(C)nn3c(NCc4cccc(-c5nccn5C)c4)cc(C(C)(C)O)nc23)cc1C(=O)N(C)[C@@H](C)CO` [Compound 20, (S)—N-(1-hydroxypropan-2-yl)-5-(5-(2-hydroxypropan-2-yl)-2-methyl-7-((3-(1-methyl-1H-imidazol-2-yl)benzyl)amino)pyrazolo[1,5-a]pyrimidin-3-yl)-2-methoxy-N-methylbenzamide], the IC50 was at most 3.98 nM.

Regarding `Cc1nn2c(NCc3cccc(-c4nccn4C)c3)cc(C(C)O)nc2c1-c1ccc(Cl)c(C(=O)N(C)CCCO)c1` (centres unmarked) [Compound 10], the IC50 was at most 3.98 nM.

Regarding `Cc1ccc(-c2c(C)nn3c(NCc4cccc(-n5cccn5)c4)cc(C(C)(C)O)nc23)cc1C(=O)N(C)CCO` [Compound 47], the IC50 was at most 3.98 nM.

Consider `COc1ccc(-c2c(C)nn3c(NCc4cccc(-n5cccn5)c4)cc(C(C)(C)O)nc23)cc1C(=O)N(C)CCCO` [Compound 33], for which the IC50 is at most 3.98 nM.

With `Cc1nn2c(NCc3cccc(-c4nccn4C)c3)cc(C(C)(C)O)nc2c1-c1ccc(Cl)c(C(=O)N2CC[C@H](O)C2)c1` [Compound 18], the IC50 was at most 3.98 nM.
